Assay results published in publication PMC3933693, “Novel Inhibitors of Mitochondrial sn-Glycerol 3-phosphate Dehydrogenase” (PLoS ONE, 2014).

What was measured:
[1] = test system: skeletal muscle mitochondria; assay: Mitochondrial membrane potential (ΔΨm, TMRM) powered by succinate; type: biochemical, rat
Protocol: Mitochondrial membrane potential (ΔΨm) was estimated fluorimetrically as described previously on the Varian fluorimeter, except the potentiometric dye TMRM was used in quench-mode in place of safranine O [34]. […] The effect of putative small-molecule inhibitors was normalized as the % change in fluorescence between vehicle treatment and complete depolarization by the uncoupler carbonyl cyanide-4-(trifluoromethoxy)phenylhydrazone (FCCP, 2 µM) added at the end of each run. When indicated, the K^+/H^+ exchanger nigericin (80 ng ⋅ ml^−1) was added to collapse the pH gradient across the mitochondrial inner membrane (ΔpH) and maximize ΔΨm.
The assay buffer for both H2O2 and ΔΨm measurements was 120 mM KCl, 5 mM HEPES, 1 mM EGTA, 0.3% (w/v) BSA without or with 250 nM free calcium at pH 7.0. All assays were performed with stirring at 37°C.
Structure/activity analysis was performed on 18 structural analogs of two structurally-related hits from the primary screen (iGP-1 and iGP-2). These 20 compounds were tested in duplicate at 0.08–80 µM (0.1% DMSO final) in microplate format for effects on site-specific H2O2 production as described above. Additionally, four microplate assays for ΔΨm were run in parallel to the H2O2 assays. These assays were as described under “Measurement of mitochondrial H2O2 production and membrane potential” except that each substrate condition was assayed in a separate microplate. […] Plates were incubated in the dark at room temperature for 30–40 min (H2O2) or 10–15 min (ΔΨm) after the addition of substrate, and endpoint fluorescence was measured on the Victor plate reader. Endpoints were chosen for the H2O2 assays to provide good signal-to-noise ratios and linear rates of change without the indicator dye limiting the reaction. Endpoints for the ΔΨm assays were determined in pilot experiments as the times for TMRM accumulation to reach a steady state. […] Endpoint fluorescence values were normalized as described in the previous section with wells containing FCCP serving as positive controls for the ΔΨm assays.

[2] = test system: skeletal muscle mitochondria; assay: Mitochondrial respiration (Seahorse XF24) in plate-attached skeletal muscle mitochondria; type: biochemical, rat
Protocol: The effects of small-molecule inhibitors on respiration were tested in plate-attached skeletal muscle mitochondria using a Seahorse XF24 Analyzer according to published protocols. Briefly, mitochondria (2 or 4 µg protein) were attached to Seahorse assay plates by centrifugation in a mannitol and sucrose-based medium (Seahorse MAS buffer) containing 0.3% (w/v) BSA without or with 250 nM free calcium at pH 7.0. […] Compounds were added in these media just prior to loading the assay plate into the Seahorse instrument. Additions were made to set respiration in basal state 2 (substrate only), phosphorylating state 3 (5 mM ADP), non-phosphorylating state 4o (0.5 ug ⋅ mL^−1 oligomycin), and to reveal the non-mitochondrial rate (2 µM myxothiazol and 2.5 µM antimycin A). Each concentration of compound was tested in at least two wells on each plate. At least three biological replicates of each titration in each substrate condition were performed.

[3] = target: T1, purified rabbit muscle cGPDH (Oryctolagus cuniculus, UniProt P08507); assay: cGPDH enzymatic activity (NADH oxidation in the presence of DHAP); type: biochemical; conditions: Fig. 5
T1 construct: Activity of purified rabbit muscle cGPDH was measured as described by the manufacturer; purchased; host or cells: rabbit muscle
T1 sequence (P08507 1-349): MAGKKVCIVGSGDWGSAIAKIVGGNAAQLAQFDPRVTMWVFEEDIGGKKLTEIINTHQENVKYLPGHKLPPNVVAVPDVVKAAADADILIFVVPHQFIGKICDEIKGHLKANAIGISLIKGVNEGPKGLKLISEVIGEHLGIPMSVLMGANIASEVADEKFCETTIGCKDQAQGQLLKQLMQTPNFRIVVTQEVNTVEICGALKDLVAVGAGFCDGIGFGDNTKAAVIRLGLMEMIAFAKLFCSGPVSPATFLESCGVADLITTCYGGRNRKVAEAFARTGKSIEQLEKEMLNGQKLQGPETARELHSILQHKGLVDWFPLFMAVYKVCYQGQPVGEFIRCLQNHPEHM
Protocol: The effects of small-molecule inhibitors on cGPDH and mGPDH enzymatic activity were tested according to established procedures. Activity of purified rabbit muscle cGPDH was measured as described by the manufacturer as the rate of oxidation of NADH in the presence of DHAP on the Varian fluorimeter (λex = 365 nm, λem = 450 nm). Activity of cGPDH in frozen-thawed synaptosomes was measured at 37°C in a BMG Labtech PHERAstar Plus microplate reader as the linear rate of change in NADH absorbance (λ = 340 nm) specific to the addition of 2.5 mM DHAP and insensitive to 4 µM rotenone. Rates were converted to nmol NADH using an extinction coefficient of 6.22 mM^−1 ⋅ cm^−1 and a calculated pathlength of 0.6 cm.

[4] = test system: ubiquinone-binding site of complex I (site IQ); assay: Site-specific H2O2 production from site IQ in skeletal muscle mitochondria; type: biochemical, rat;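 also: H2O2 from superoxide detected by Amplex UltraRed fluorescence with added superoxide dismutase and horseradish peroxidase, endpoint read 30–40 min after substrate addition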
STHdhQ7 cells = assay: Live cell imaging of iGP-1 fluorescence (ability to cross cellular membranes); type: cell-based; conditions: 100 µM; intrinsic fluorescence in live cells
Protocol: The ability of iGP-1 to cross cellular membranes was evaluated in STHdhQ7 cells cultured at 33°C as described. Cells were seeded on collagen-coated, Lab-Tek chambered coverglass (Nunc) 48 h before use. Prior to imaging, cells were cultured for 45 min with 65 nM LysoTracker Red ±250 nM bafilomycin A1. Medium was then replaced with imaging buffer (120 mM NaCl, 3.5 mM KCl, 0.4 mM KH2PO4, 20 mM TES, 5 mM NaHCO3, 1.2 mM Na2SO4, 1.5 mM CaCl2, 0.5 mM MgCl2, 2 mM Glucose, and 0.2% BSA, pH 7.4) containing DMSO, 250 nM bafilomycin A1 or 100 µM iGP-1. Cells were imaged on a Nikon Eclipse Ti-PFS inverted microscope equipped with a Cascade 512B camera (Photometrics, Tucson, AZ), a Plan Fluor 100X/1.3 oil objective, an LB-LS17 Xe-arc light source (attenuated), 10–3 excitation and emission filter wheels (Sutter Instruments, Novato, CA), and an MS-2000 linear encoded motorized stage (ASI, Eugene, OR). The filter sets, given as excitation, dichroic mirror, emission in nm/bandwidth, were, for iGP-1 (1 s exposure), 340/26, 409, 460/80 and for LysoTracker Red (100 ms exposure), 543/22, 562, 588/21 (all from Semrock, Rochester, NY). Image acquisition was controlled by NIS Elements 4.0 (Nikon, Melville, NY). Images of cell-free wells containing buffer with DMSO or iGP-1 were used for background subtraction in Image Analyst MKII (Novato, CA).

effect on the soluble form of GPDH (cGPDH) activity [3]: did not inhibit
cell permeability (STHdhQ7 cells): readily crosses cellular membranes
Structure (SMILES): O=C(O)CCC(=O)Nc1ccc(-c2nc3ccccc3[nH]2)cc1 [iGP-1]
effect on ΔΨm powered by 0.5 mM succinate ([1]; 80 µM, 0.5 mM succinate): significantly decreased
effect on ΔΨm powered by 5 mM succinate ([1]; 5 mM succinate): no effect
effect on glycerol phosphate-dependent respiration ([2]; 25 and 80 µM, 16.7 mM glycerol phosphate, rotenone, 250 nM free calcium): significantly decreased
effect on respiration on other substrates ([2]; pyruvate and malate, glutamate and malate, succinate and rotenone): without altering
IQ H2O2 production with 5 mM Suc (% change at 80 μM) ([4]; 80 μM, 5 mM succinate): -9%
concentration above which H2O2 production by site IQ starts to be inhibited ([4]; Fig. 6B): above 10 µM
IQ (% change from DMSO) ([4]; primary screen, ∼2.5 µM, average of duplicates, 5 mM succinate): 1.0%
